The supplement of paper PMC10307832

Columns and labels:
Experiment in all cases: relative viability (nuclei count vs DMSO), 5 days (fraction); higher = more cells survive
Dactolisib + Lapatinib = compound: Cn1c(=O)n(-c2ccc(C(C)(C)C#N)cc2)c2c3cc(-c4cnc5ccccc5c4)ccc3ncc21 [Dactolisib] + CS(=O)(=O)CCNCc1ccc(-c2ccc3ncnc(Nc4ccc(OCc5cccc(F)c5)c(Cl)c4)c3c2)o1 [Lapatinib] (partner 2 µM)
Method in brief: (§1)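 Lung cancer cell lines were pin-tool dosed in 1536-well plates on the day after seeding, with either a lone drug or a fixed anchor-drug dose plus five library-drug doses (not always all listed) in √10 steps. Nuclei were counted on 4× images after 5 days. Relative viability is the ratio of treated-well to vehicle-well nuclei counts, with each value a median of duplicate plates.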

AZ505 + Linsitinib = compound: C1CCC(CC1)N(CCNCCC2=C3C(=C(C=C2)O)NC(=O)CO3)C(=O)CCNCCC4=CC(=C(C=C4)Cl)Cl [AZ505] + C[C@]1(O)C[C@@H](c2nc(-c3ccc4ccc(-c5ccccc5)nc4c3)c3c(N)nccn32)C1 [Linsitinib] (partner 1 µM)
Method in brief: as §1

AZ505 + Pemetrexed = compound: C1CCC(CC1)N(CCNCCC2=C3C(=C(C=C2)O)NC(=O)CO3)C(=O)CCNCCC4=CC(=C(C=C4)Cl)Cl [AZ505] + Nc1nc2[nH]cc(CCc3ccc(C(=O)N[C@@H](CCC(=O)O)C(=O)O)cc3)c2c(=O)[nH]1 [Pemetrexed] (partner 0.2 µM)
Method in brief: as §1

AZ505 + Dasatinib = compound: C1CCC(CC1)N(CCNCCC2=C3C(=C(C=C2)O)NC(=O)CO3)C(=O)CCNCCC4=CC(=C(C=C4)Cl)Cl [AZ505] + Cc1nc(Nc2ncc(C(=O)Nc3c(C)cccc3Cl)s2)cc(N2CCN(CCO)CC2)n1 [Dasatinib] (partner 0.075 µM)
Method in brief: as §1

Cell Line | relative viability (Dactolisib + Lapatinib; first compound 0.002 µM) | relative viability (Dactolisib + Lapatinib; first compound 0.006325 µM) | relative viability (Dactolisib + Lapatinib; first compound 0.02 µM) | relative viability (Dactolisib + Lapatinib; first compound 0.06325 µM) | relative viability (Dactolisib + Lapatinib; first compound 0.2 µM) | relative viability (AZ505 + Linsitinib; first compound 0.08 µM) | relative viability (AZ505 + Linsitinib; first compound 0.253 µM) | relative viability (AZ505 + Linsitinib; first compound 0.8 µM) | relative viability (AZ505 + Linsitinib; first compound 2.53 µM) | relative viability (AZ505 + Linsitinib; first compound 8 µM) | relative viability (AZ505 + Pemetrexed; first compound 0.08 µM) | relative viability (AZ505 + Pemetrexed; first compound 0.253 µM) | relative viability (AZ505 + Pemetrexed; first compound 0.8 µM) | relative viability (AZ505 + Pemetrexed; first compound 2.53 µM) | relative viability (AZ505 + Pemetrexed; first compound 8 µM) | relative viability (AZ505 + Dasatinib; first compound 0.08 µM) | relative viability (AZ505 + Dasatinib; first compound 0.253 µM) | relative viability (AZ505 + Dasatinib; first compound 0.8 µM) | relative viability (AZ505 + Dasatinib; first compound 2.53 µM) | relative viability (AZ505 + Dasatinib; first compound 8 µM)
NCI-H1993 | 0.784 | 0.714 | 0.843 | 0.601 | 0.651 | 0.677 | 0.654 | 0.728 | 0.91 | 0.7 | 0.63 | 0.66 | 0.568 | 0.651 | 0.677 | 0.653 | 0.722 | 0.611 | 0.623 | 0.737
NCI-H1734 | 1.02 | 1 | 0.817 | 0.342 | 0.378 | 0.654 | 0.908 | 0.801 | 0.949 | 0.883 | 0.405 | 0.351 | 0.392 | 0.398 | 0.416 | 0.456 | 0.467 | 0.482 | 0.478 | 0.417
HOP-62 | 1.28 | 1.04 | 0.891 | 0.756 | 0.667 | 0.932 | 1.03 | 1.08 | 0.863 | 1.08 | 0.325 | 0.443 | 0.327 | 0.393 | 0.379 | 0.528 | 0.644 | 0.484 | 0.598 | 0.64
LOU-NH91 | 0.725 | 0.782 | 0.666 | 0.567 | 0.51 | 0.838 | 0.92 | 0.857 | 0.915 | 0.962 | 0.327 | 0.338 | 0.324 | 0.382 | 0.349 | 0.536 | 0.537 | 0.452 | 0.53 | 0.601
NCI-H2228 | 0.993 | 0.914 | 0.496 | 0.246 | 0.246 | 0.418 | 0.651 | 0.53 | 0.549 | 0.49 | 0.334 | 0.353 | 0.366 | 0.356 | 0.283 | 0.447 | 0.421 | 0.51 | 0.457 | 0.443
PC-14 | 0.33 | 0.347 | 0.318 | 0.186 | 0.141 | 0.88 | 0.948 | 0.922 | 0.881 | 0.951 | 0.122 | 0.138 | 0.127 | 0.146 | 0.166 | 0.219 | 0.241 | 0.296 | 0.264 | 0.227
NCI-H1437 | 0.797 | 0.835 | 0.807 | 0.517 | 0.234 | 1.02 | 1.15 | 1.08 | 1.08 | 1.03 | 0.334 | 0.314 | 0.29 | 0.336 | 0.322 | 0.346 | 0.334 | 0.58 | 0.378 | 0.376
NCI-H460 | 0.965 | 0.945 | 0.927 | 0.234 | 0.112 | 0.654 | 0.899 | 0.674 | 0.716 | 0.817 | 0.063 | 0.0565 | 0.0644 | 0.0703 | 0.0621 | 0.529 | 0.416 | 0.557 | 0.314 | 0.59
NCI-H1666 | 0.723 | 0.559 | 0.691 | 0.318 | 0.391 | 0.835 | 0.718 | 0.849 | 0.726 | 0.941 | 0.81 | 0.835 | 0.736 | 0.85 | 0.841 | 0.745 | 0.795 | 0.783 | 0.828 | 0.69
NCI-H1651 | 0.84 | 0.788 | 0.643 | 0.35 | 0.303 | 0.911 | 0.977 | 0.895 | 0.962 | 1.16 | 0.529 | 0.557 | 0.608 | 0.679 | 0.6 | 0.47 | 0.416 | 0.386 | 0.441 | 0.49
NCI-H1755 | 1.07 | 1.03 | 1.06 | 0.852 | 0.73 | 0.968 | 0.984 | 0.924 | 0.985 | 0.974 | 0.474 | 0.452 | 0.402 | 0.44 | 0.461 | 0.393 | 0.51 | 0.43 | 0.442 | 0.474
NCI-H661 | 0.434 | 0.475 | 0.414 | 0.257 | 0.263 | 0.583 | 0.567 | 0.544 | 0.491 | 0.646 | 0.834 | 0.928 | 0.865 | 0.931 | 0.928 | 0.862 | 0.932 | 0.731 | 0.958 | 0.964
HARA | 0.652 | 0.67 | 0.761 | 0.421 | 0.318 | 0.897 | 0.894 | 0.695 | 0.737 | 0.773 | 0.208 | – | 0.213 | 0.24 | 0.228 | 0.191 | 0.229 | 0.367 | 0.318 | 0.217
NCI-H596 | 1.02 | 1.06 | 0.909 | 0.574 | 0.369 | 0.953 | 0.932 | 0.933 | 1 | 0.908 | 0.463 | – | 0.469 | 0.564 | 0.483 | 0.605 | 0.577 | 0.591 | 0.657 | 0.56
NCI-H1563 | 0.939 | 0.892 | 0.816 | 0.72 | 0.582 | 1.24 | 1.32 | 1.13 | 1.29 | 1.15 | 0.703 | 0.782 | 0.875 | 0.771 | 0.769 | 0.456 | 0.467 | 0.498 | 0.481 | 0.432
NCI-H23 | 1.15 | 1.1 | 0.886 | 0.292 | 0.313 | 0.561 | – | 0.651 | 0.554 | 0.545 | 0.638 | 0.506 | 0.604 | 0.73 | 0.668 | 0.721 | – | 0.722 | 0.797 | 0.877
LCLC-97TM1 | 0.926 | 0.558 | 0.842 | 0.269 | 0.317 | 0.257 | 0.2 | 0.16 | 0.201 | 0.199 | 0.161 | 0.253 | 0.193 | – | 0.175 | 0.77 | 0.795 | 0.767 | 0.674 | 0.88
EPLC-272H | 0.879 | 0.728 | 0.664 | 0.687 | 0.4 | 0.922 | 1.14 | 1.04 | 1.34 | 1.33 | 0.246 | 0.318 | 0.254 | 0.245 | 0.232 | – | 0.371 | 0.315 | 0.265 | 0.344
NCI-H1915 | 0.986 | 0.956 | 0.97 | 0.964 | 0.693 | 1.14 | 1.1 | 1.03 | 0.942 | 1.04 | 0.541 | 0.492 | 0.534 | 0.614 | 0.525 | 0.28 | 0.298 | 0.269 | 0.275 | 0.337
NCI-H2405 | 1.03 | 1.11 | 1.01 | 0.735 | 0.393 | 0.585 | 0.639 | 0.62 | 0.563 | 0.714 | 0.715 | – | 0.841 | 0.882 | 0.97 | 0.187 | 0.151 | 0.133 | 0.203 | 0.176
NCI-H322M | 0.612 | 0.583 | 0.616 | 0.527 | 0.508 | 0.895 | 0.863 | 0.983 | 0.981 | 0.95 | 0.604 | – | 0.61 | 0.647 | 0.648 | 0.24 | 0.233 | 0.239 | 0.261 | 0.273
NCI-H1395 | 1 | 0.918 | 0.966 | 0.708 | 0.545 | 0.972 | 1.01 | 0.949 | 0.971 | 1 | 0.919 | – | 0.733 | 0.969 | 1.04 | 0.427 | 0.451 | 0.375 | 0.419 | 0.455
NCI-H358 | 0.443 | 0.439 | 0.379 | 0.304 | 0.267 | 0.733 | 0.689 | 0.689 | 0.752 | 0.669 | 0.177 | 0.227 | 0.158 | 0.179 | 0.184 | 0.226 | 0.145 | 0.192 | 0.115 | 0.167
NCI-H838 | 0.983 | 0.717 | 0.463 | 0.249 | 0.224 | 0.965 | 1.03 | 1.02 | 0.997 | 0.928 | 0.251 | 0.253 | 0.252 | 0.246 | 0.221 | 0.233 | 0.273 | 0.298 | 0.28 | 0.308
CAL-12T | 0.792 | 0.567 | 0.537 | 0.366 | 0.258 | 0.72 | 0.901 | 0.684 | 0.748 | 0.9 | 1.08 | 1.2 | 1.26 | 1.29 | 1.46 | 0.466 | 0.585 | 0.381 | 0.413 | 0.472
